Patent publication US20250302773A1, “CO[…] AND N-ACYLETH[…] USES THEREOF” (CLEARMIND MEDICINE INC., priority 2022, published 2025)

What was measured:
[1] = test system: C57BL/6 mice; assay: Mortality and gross pathology in the IA2BC study; type: in vivo
Method: Morbidity and mortality checks were performed daily. Animals that were sacrificed during the study were considered for the interpretation of study results as animals that died during the study. In case of mortality before the study's scheduled termination, gross pathology evaluation was performed as close as possible to the time of death. The time of death was recorded as precisely as possible.
Observations documented any irregularities, such as changes in local injection site, skin, fur, eyes, mucous membranes, respiratory, occurrence of secretions and excretions (e.g. diarrhea) and autonomic activity (e.g. lacrimation, salivation, piloerection, pupil size, unusual respiratory pattern). Changes in gait, posture, and response to handling, as the presence of bizarre behavior, tremors, convulsions, sleep, and coma were also included. All observed abnormalities, toxic signs, moribund condition, and pre-terminal deaths were recorded.
The animals were evaluated for macroscopic findings during gross pathology.

[2] = test system: C57BL/6 mice; assay: Alcohol preference (alcohol / total fluids) in the IA2BC study; type: in vivo
Method: The mean alcohol preference, which was defined as the ratio between alcohol weight (g/kg/24 h) divided by the total weight of water and alcohol consumed by the animals (g/kg/24 h) was evaluated.

[3] = test system: C57BL/6 mice; assay: Intermittent access to 20% Alcohol in two-bottle choice (IA2BC) model: alcohol consumption; type: in vivo
Method: The principle of the study is based on Intermittent access to 20% Alcohol in two-bottle choice (IA2BC) model in mice. The mice were provided during the whole Study with two bottles: one bottle of water, and another bottle of 20% ethanol solution, which were removed and replaced after 24 hours with another buttle of water, for additional 24 hours. In total, the mice were subjected to 20% ethanol 24 hours, three times a week, for seven-eight weeks (21-22 alcohol consumption days).
The alcohol consumption was measured after each 24 of alcohol exposure (by weighing the alcohol buttle before and after). Following four weeks of intermittent access to 20% alcohol the mice were allocated to groups according to their alcohol consumption, to achieve balanced groups. To examine the effect of treatment in reducing alcohol consumption, mice were treated with the Test Item/s or Vehicle daily during weeks 6-7/8. […]
Animal alcohol and water consumption was recorded for each cage and was done for a 24±2 hours period starting at Day 1, three times a week thereafter until the end of the Study.
Intermittent access to 20% Alcohol in two-bottle choice (IA2BC) model in mice. The mice were subjected to 20% ethanol 24 hours, three times a week, for five weeks (15 alcohol consumption days), and the alcohol consumption was measured by weight. […]

[4] = Body weight in the IA2BC study; type: in vivo, mice; settings: group 4F (MEAI mid dose, 60 mg/kg), only during Day 40 of cycle 1; *p<0.05
Method: Body weight was recorded upon arrival, before study initiation, three times a week thereafter and at termination.
Body weight (BW) was monitored every other day in all animals of all groups.

[5] = test system: C57BL/6 mice; assay: Food consumption in the IA2BC study; type: in vivo; settings: cycle 2, Group 7F, MEAI/PEA 0/25 mg/kg
Method: Animal food consumption was performed twice before first dosing (during alcohol addition, and without alcohol addition), during dosing period at each alcohol addition (six times in total) and before termination (without alcohol addition).
The Food consumption was recorded in each cage for a […] period. Determinations of food consumption (calculated value) were based on a provided diet placed in hoppers and the remaining unused diet weighed.
Food consumption was monitored per each mouse in each individual cage for 24 h during Alcohol addition time, by measuring the weight of food before and after 24 hours. The consumption of food was measured during all MEAI treatment days, in both cycles. The mean value for each group during each consumption day was calculated as fold change from baseline (i.e. food consumption measured before MEAI treatment), per each animal. The fold change values of each MEAI/PEA treated group was compared to the vehicle groups (1F/6F/7F) and statistical analysis was performed.

COc1ccc2c(c1)CC(N)C2 (centres unmarked) [MEAI, 5-methoxy-2-aminoindan]
mortality ([1]; high doses treated groups, after prolonged alcohol consumption): four
gross pathology findings in liver, kidneys, heart and spleen (bright color and/or enlarged) ([1]; observed in all groups including vehicle treated): most likely related to the alcohol consumption and not to the MEAI treatment
reduction of alcohol preference compared to control, significance ([2]; cycle 1, 100 mg/kg MEAI): statistically significant
mean alcohol preference compared to control groups ([2]; cycle 1, MEAI 20-100 mg/kg): reduced in a dose dependent manner
reducing alcohol consumption of the treated animals ([3]; MEAI 20-100 mg/kg PO daily, weeks 6-7/8, treated vs control): significant dose dependent effect
alcohol consumption during treatment compared to consumption before treatment ([3]; cycle 1, MEAI at a dose of 40 mg/kg and at higher doses PO, mean of six alcohol days, ** p<0.01, *** p<0.001): significantly reduced
body weight compared to control group [4]: significantly lower

CCCCCCCCCCCCCCCC(=O)NCCO [PEA, N-(2-hydroxyethyl) hexadecanamide]
reduction of food consumption compared to own baseline [5]: 22%
